# From PubChem BioAssay (NCI)
#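 48-hour exposure; five concentrations; linearly interpolated endpoints. TGI marks complete inhibition of growth.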
# Columns and labels:
# Test in all cases: NCI-60 cell line screen, 48 h
# [1] = system: SF-539 CNS
# [2] = system: MDA-MB-231 breast
# [3] = system: CCRF-CEM leukemia
# [4] = system: OVCAR-5 ovarian
# [5] = system: NCI-H23 lung
# [6] = system: EKVX NSCLC
# [7] = system: CAKI-1 renal
# [8] = system: MOLT-4 leukemia
# [9] = system: SN12C renal
# [10] = system: 786-0 renal
# [11] = system: MDA-MB-435
# [12] = system: SR leukemia
# [13] = system: HT29 colon
# [14] = system: OVCAR-4 ovarian
# [15] = system: SF-268 CNS
# [16] = system: IGROV1 ovarian
# [17] = system: RPMI-8226 leukemia
# [18] = system: SK-OV-3 ovarian
# [19] = system: MDA-N
# [20] = system: SW-620 colon
# [21] = system: COLO 205 colon
# [22] = system: HCT-15 colon
# [23] = system: MCF7 breast
# [24] = system: HOP-62 NSCLC
# [25] = system: HOP-92 NSCLC
# [26] = system: M14 melanoma
# [27] = system: NCI/ADR-RES ovarian
# [28] = system: UO-31 renal
# [29] = system: HCT-116 colon
# [30] = system: NCI-H226 lung
# [31] = system: ACHN renal
# [32] = system: A498 renal
# [33] = system: HCC-2998 colon
# [34] = system: KM12 colon
# [35] = system: T-47D breast
# [36] = system: U251 CNS
# [37] = system: NCI-H522 lung
# [38] = system: SNB-75 CNS
# [39] = system: DU-145 prostate
# [40] = system: TK-10 renal
# [41] = system: OVCAR-8 ovarian
# [42] = system: NCI-H460 lung
# [43] = system: HS 578T breast
# [44] = system: SF-295 CNS
# [45] = system: RXF 393 renal
# [46] = system: OVCAR-3 ovarian
# [47] = system: HL-60(TB) leukemia
# [48] = system: UACC-257 melanoma
# [49] = system: SK-MEL-5 melanoma
# [50] = system: UACC-62 melanoma
# [51] = system: MALME-3M melanoma
# [52] = system: SK-MEL-2 melanoma
# [53] = system: PC-3 prostate
# [54] = system: SK-MEL-28 melanoma
smiles,measurement,setting,value
c1ccc(-c2cc(-c3cccs3)c(-c3cccs3)s2)cc1,TGI,[1],> 100 µM
same,TGI,[2],> 100 µM
same,TGI,[3],57.9 µM
same,TGI,[4],> 100 µM
same,TGI,[5],60.2 µM
same,TGI,[6],> 100 µM
same,TGI,[7],> 100 µM
same,TGI,[8],63.1 µM
same,TGI,[9],> 100 µM
same,TGI,[10],> 100 µM
same,TGI,[11],75.5 µM
same,TGI,[12],52.3 µM
same,TGI,[13],> 100 µM
same,TGI,[14],62.6 µM
same,TGI,[15],> 100 µM
same,TGI,[16],> 100 µM
same,TGI,[17],79 µM
same,TGI,[18],> 100 µM
same,TGI,[19],> 100 µM
same,TGI,[20],> 100 µM
same,TGI,[21],> 100 µM
same,TGI,[22],70.1 µM
same,TGI,[23],41 µM
same,TGI,[24],> 100 µM
same,TGI,[25],> 100 µM
same,TGI,[26],54.5 µM
same,TGI,[27],> 100 µM
same,TGI,[28],72.3 µM
same,TGI,[29],> 100 µM
same,TGI,[30],> 100 µM
same,TGI,[31],> 100 µM
same,TGI,[32],> 100 µM
same,TGI,[33],67.8 µM
same,TGI,[34],32.9 µM
same,TGI,[35],58.4 µM
same,TGI,[36],> 100 µM
same,TGI,[37],64.8 µM
same,TGI,[38],> 100 µM
same,TGI,[39],> 100 µM
same,TGI,[40],> 100 µM
same,TGI,[41],> 100 µM
same,TGI,[42],> 100 µM
same,TGI,[43],> 100 µM
same,TGI,[44],> 100 µM
same,TGI,[45],47.3 µM
same,TGI,[46],> 100 µM
same,TGI,[47],88.5 µM
same,TGI,[48],> 100 µM
same,TGI,[49],> 100 µM
same,TGI,[50],> 100 µM
S=C(/C=C1\SC(=Nc2ccccc2)C(=Nc2ccccc2)N1c1ccccc1)Nc1ccccc1,TGI,[2],> 100 µM
same,TGI,[51],> 100 µM
same,TGI,[3],> 100 µM
same,TGI,[5],> 100 µM
same,TGI,[7],> 100 µM
same,TGI,[8],> 100 µM
same,TGI,[9],> 100 µM
same,TGI,[11],> 100 µM
same,TGI,[12],> 100 µM
same,TGI,[13],> 100 µM
same,TGI,[52],> 100 µM
same,TGI,[53],> 100 µM
same,TGI,[16],> 100 µM
same,TGI,[17],> 100 µM
same,TGI,[54],> 100 µM
same,TGI,[18],> 100 µM
same,TGI,[19],> 100 µM
same,TGI,[21],> 100 µM
same,TGI,[22],> 100 µM
same,TGI,[24],> 100 µM
same,TGI,[25],> 100 µM
same,TGI,[26],> 100 µM
same,TGI,[27],> 100 µM
same,TGI,[29],> 100 µM
same,TGI,[32],> 100 µM
same,TGI,[34],> 100 µM
same,TGI,[35],> 100 µM
same,TGI,[36],> 100 µM
same,TGI,[37],> 100 µM
same,TGI,[38],> 100 µM
same,TGI,[39],> 100 µM
same,TGI,[41],> 100 µM
same,TGI,[42],> 100 µM
same,TGI,[43],> 100 µM
same,TGI,[44],> 100 µM
same,TGI,[46],> 100 µM
same,TGI,[47],> 100 µM
same,TGI,[49],> 100 µM
same,TGI,[50],> 100 µM
